# Tests used:
# [1] = Solubility test in PBS buffer; format: physicochemical; conditions: PBS pH 7.4, 0.2 mg/mL; for Appearance at 37° C.: 1 minute in 37° C. water bath; for Appearance at RT: room temperature
# Procedure: First, compounds were weighed in a vial and PBS buffer (137, 2.7, 10 and 1.8 mM in NaCl, KCl, Na2HPO4, KH2PO4, respectively; pH=7.4) was added, such that the concentration would become 0.2 mg/mL in case full dissolution would take place. The sample was shaken, left to stand for an hour, shaken again, and then the appearance of the solution at room temperature (RT) was checked. Next, the sample was warmed for 1 minute in a water bath of 37° C., and the appearance of the solution was checked again. In the below table the results are compiled.
# [2] = HPLC retention times to compare lipophilicities; format: physicochemical; conditions: Kinetex EVO C18 column, same gradient A to B; higher retention time = more lipophilic
# Procedure: Experimentally, one can also compare lipophilicities of molecules by performing HPLC using the same elution gradient. Molecules that have higher affinities with the hydrophobic C18-material of the column are more lipophilic and as a result have a higher retention time.
# Methods: HPLC-MS(SIM) and HPLC-ELSD were performed on a Phenomenex Kinetex 5 micrometer EVO C18 100A LC-column (50×2.1 mm) employing the same gradient from A to B eluent, where A=20 mM NH4HCO2 in H2O with 0.1 v/v % formic acid, and B=2-propanol/MeCN/H2O 85:15:5, also with 20 mM NH4HCO2 and 0.1 v/v % formic acid.
# [3] = Solubility test in demineralized water; format: physicochemical; conditions: 0.3 mM, film, sonicated, overnight
# Procedure: Next, compounds were weighed and dissolved in chloroform/methanol. The solutions were left to dry in a vial forming a film of the materials. The vials were put in vacuo to remove traces of organic solvent. Demineralized water was added, such that the concentration of the compounds would become 0.3 mM in case full dissolution would take place (0.3 mM corresponds to 0.3 mg/mL for a MW=1000 Dalton compound). The vial was briefly sonicated in a water bath, left to stand overnight, and once again sonicated (sonication at RT). The appearances of the solutions at RT were checked to assess solubilities. In the below table the results are compiled.
# human NOD2 (hNOD2) = target: T1, human NOD2 (hNOD2) (Homo sapiens, UniProt Q9HC29); assay: In vitro NOD2 activation assay in HEK-Blue hNOD2 cells; format: cell-based; conditions: overnight incubation, FIG. 3
# T1 construct: host or cells: HEK-Blue hNOD2 cells
# Procedure: The stimulation of human NOD2 (hNOD2) by compounds disclosed herein was studied by monitoring activation of NF-κB in HEK-Blue™ hNOD2 cells (Invitrogen). 50,000 HEK-Blue™ hNOD2 cells were seeded in HEK-Blue™ Detection Medium in flat-bottom tissue culture plates. Concentration ranges of the test article (compounds diluted from DMSO-solutions (17.8 mmoL/L), first with demineralized water and then with PBS to the desired concentrations) were added to the cells in the tissue culture plates. Cells were incubated overnight at 37° C. and 5% CO2. The following day, supernatants were collected in an ELISA plate and the OD was measured at 620 nm using a spectrophotometer.
# The signal in this assay is based on NOD2 stimulation with a ligand which subsequently activates NF-κB and AP-1, resulting in the production of SEAP. Levels of SEAP were then determined with HEK-Blue™ Detection medium (Invitrogen). The hydrolysis of the substrate in the medium by SEAP produces a purple/blue color that was then measured with an Absorbance microplate reader. OD values are mapped based on test article concentration and are depicted in FIG. 3. Assay performance was validated with muramyl dipeptide (CAS number [53678-77-6]).
# [4] = Degradation by augmented oxidation test; format: physicochemical; conditions: 12% hydrogen peroxide in water, 80° C., 4 hours
# Procedure: The reference compounds MDP and MDP(Bn) as well as the Bn-substituted compounds from Example 7 (i.e. MDP(Bn)-DSPE[click] and Example 14 (i.e. MTP(Bn)-a-DPPE) were mixed with 12% hydrogen peroxide in water and were heated to 80° C. for 4 hours, in order to get a fast degradation of the molecules by oxidation, mimicking slower in-vivo oxidation events.
# The resulting reaction mixtures were diluted with acetonitrile and water (1:1) for the MDP and MDP(Bn) test solutions, or with iPrOH, acetonitrile and water (40:7.5:52.5) with 0.1% formic acid and 20 mM ammonium formate for the MDP(Bn)-DSPE[click] and the MTP(Bn)-a-DPPE solutions. The 4 diluted samples were analyzed by HPLC-MS. For reference, the 4 starting materials were also analyzed by HPLC-MS, as well as MDP-DSPE[click] and MTP-a-DPPE, i.e. the de-benzylated reference compounds to the Bn-substituted test molecules.
# T1 sequence (Q9HC29 whole entry): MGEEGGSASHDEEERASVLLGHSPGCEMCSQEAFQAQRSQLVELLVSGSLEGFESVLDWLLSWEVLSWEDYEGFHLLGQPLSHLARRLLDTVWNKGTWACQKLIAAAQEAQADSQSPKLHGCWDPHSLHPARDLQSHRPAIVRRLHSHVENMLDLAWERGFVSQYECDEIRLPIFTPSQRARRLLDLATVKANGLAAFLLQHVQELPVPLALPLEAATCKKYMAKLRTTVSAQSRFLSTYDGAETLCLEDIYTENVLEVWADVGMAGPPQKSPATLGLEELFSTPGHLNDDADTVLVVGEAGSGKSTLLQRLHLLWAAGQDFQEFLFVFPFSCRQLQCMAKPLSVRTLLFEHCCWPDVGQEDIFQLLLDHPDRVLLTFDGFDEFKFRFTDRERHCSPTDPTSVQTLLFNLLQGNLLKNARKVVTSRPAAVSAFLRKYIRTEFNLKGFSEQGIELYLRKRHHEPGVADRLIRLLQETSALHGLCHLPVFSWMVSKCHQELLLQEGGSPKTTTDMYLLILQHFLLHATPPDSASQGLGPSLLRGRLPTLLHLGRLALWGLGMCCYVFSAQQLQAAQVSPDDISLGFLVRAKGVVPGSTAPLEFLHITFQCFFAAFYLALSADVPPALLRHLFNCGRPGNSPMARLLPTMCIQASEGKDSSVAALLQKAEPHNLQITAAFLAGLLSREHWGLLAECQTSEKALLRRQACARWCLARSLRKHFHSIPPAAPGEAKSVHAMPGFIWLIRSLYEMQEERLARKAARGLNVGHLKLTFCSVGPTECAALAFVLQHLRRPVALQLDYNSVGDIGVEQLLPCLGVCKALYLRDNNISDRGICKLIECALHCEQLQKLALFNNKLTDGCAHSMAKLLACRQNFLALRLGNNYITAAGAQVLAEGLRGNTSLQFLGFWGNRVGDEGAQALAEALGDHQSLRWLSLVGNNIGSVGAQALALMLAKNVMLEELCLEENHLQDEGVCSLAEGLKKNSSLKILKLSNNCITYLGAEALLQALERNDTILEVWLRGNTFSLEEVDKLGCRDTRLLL
Appearance at 37° C. [1],Appearance at RT [1],HPLC-ELSD t [2] [min],Appearance at RT [3],HPLC-MS t [2] [min],Compound,"NOD2 activation (NF-κB/SEAP reporter, OD at 620 nm) (human NOD2 (hNOD2))","Oxidative degradation, products by HPLC-MS [4]"
clear,clear,,Clear,0.95,"CCCCCCCCCCCCCCCCCC(=O)OC[C@H]1OC(O)[C@H](NC(C)=O)[C@@H](O[C@H](C)C(=O)N[C@@H](C)C(=O)N[C@H](CCC(=O)O)C(N)=O)[C@@H]1O (stereo partly drawn) [MDP-C18[mur], N-Acetylmuramyl-L-Alanyl-D-Isoglutamine-6-O-Stearoyl, reference compound]",,
suspension,suspension,,Precipitate,,"CCCCCCCCCCCCCCCCCCNC(=O)CC[C@@H](NC(=O)[C@H](C)NC(=O)[C@@H](C)O[C@H]1[C@H](O)[C@@H](CO)OC(O)[C@@H]1NC(C)=O)C(N)=O (stereo partly shown) [Example 11, MDP-C18]",,
hazy,hazy,4.58,Gelly/hazy/precipitate,4.46,"CCCCCCCCCCCCCCCCCC(=O)OC[C@H](COP(=O)(O)OCCNC(=O)Cn1cc(CNC(=O)CC[C@@H](NC(=O)[C@H](C)NC(=O)[C@@H](C)O[C@H]2[C@H](O)[C@@H](CO)OC(O)[C@@H]2NC(C)=O)C(N)=O)nn1)OC(=O)CCCCCCCCCCCCCCCCC (stereo partly shown) [Example 2, MDP-DSPE [Click]]",comparable,
,,,Precipitate,,"CCCCCCCCCCCCCCCCCC(=O)OCc1cn(CCCC[C@H](NC(=O)CC[C@@H](NC(=O)[C@H](C)NC(=O)[C@@H](C)O[C@H]2[C@H](O)[C@@H](CO)OC(OCc3ccccc3)[C@@H]2NC(C)=O)C(N)=O)C(N)=O)nn1 (stereo partly shown) [Example 9, MTP-b-C18[Invclick]]",,
hazy,suspension,5.16,Hazy,5.16,"CCCCCCCCCCCCCCCCCC(=O)OC[C@H](COP(=O)(O)OCCNC(=O)Cn1cc(CNC(=O)CC[C@@H](NC(=O)[C@H](C)NC(=O)[C@@H](C)O[C@H]2[C@H](O)[C@@H](CO)OC(OCc3ccccc3)[C@@H]2NC(C)=O)C(N)=O)nn1)OC(=O)CCCCCCCCCCCCCCCCC (stereo partly shown) [Example 7, MDP(Bn)-DSPE [Click]]",comparable,mainly degraded via oxidation of the Bn-group to a benzoate group (+14) followed by hydrolysis of the benzoate (−104)
,,,Precipitate,,"CCCCCCCCCCCCCCCCCC(=O)NCCCC[C@H](NC(=O)CC[C@@H](NC(=O)[C@H](C)NC(=O)[C@@H](C)O[C@H]1[C@H](O)[C@@H](CO)OC(OCc2ccccc2)[C@@H]1NC(C)=O)C(N)=O)C(N)=O (stereo partly shown) [Example 10, MTP-b-C18]",,
clear,hazy,3.04,Clear,2.85,"CCCCCCCCCCCCCCCC(=O)OC[C@H](COP(=O)(O)OCCNC(=O)[C@H](C)NC(=O)CC[C@@H](NC(=O)[C@H](C)NC(=O)[C@@H](C)O[C@H]1[C@H](O)[C@@H](CO)OC(O)[C@@H]1NC(C)=O)C(N)=O)OC(=O)CCCCCCCCCCCCCCC (stereo partly drawn) [Mifamurtide, N—(N-Acetylmuramoyl)-L-alanyl-D-alpha-glutaminyl-N-[(7R)-4-hydroxy-4-oxido-10-oxo-7-[(1-oxohexadecyl)oxy]-3,5,9-trioxa-4-phosphapentacos-1-yl]-L-alaninamide, reference compound]",,

# Continued, molecule first:
Compound,Appearance at 37° C. [1],Appearance at RT [1],HPLC-ELSD t [2] [min],Appearance at RT [3],HPLC-MS t [2] [min],"NOD2 activation (NF-κB/SEAP reporter, OD at 620 nm) (human NOD2 (hNOD2))","Oxidative degradation, products by HPLC-MS [4]"
"CCCCCCCCCCCCCCCCCC(=O)OC[C@H](COC(=O)NCCCC[C@H](NC(=O)CC[C@@H](NC(=O)[C@H](C)NC(=O)[C@@H](C)O[C@H]1[C@H](O)[C@@H](CO)OC(OCc2ccccc2)[C@@H]1NC(C)=O)C(N)=O)C(N)=O)OC(=O)CCCCCCCCCCCCCCCCC (stereo partly shown) [Example 13, MTP-b-DSG]",suspension,suspension,5.49,Gel/precipitate,,"able to activate NOD2, but seemingly to a lesser extent",
"CCCCCCCCCCCCCCCC(=O)OC[C@H](COP(=O)(O)OCCNC(=O)[C@H](C)NC(=O)CC[C@@H](NC(=O)[C@H](C)NC(=O)[C@@H](C)O[C@H]1[C@H](O)[C@@H](CO)OC(OCc2ccccc2)[C@@H]1NC(C)=O)C(N)=O)OC(=O)CCCCCCCCCCCCCCC (stereo partly shown) [Example 14, MTP(Bn)-a-DPPE]",,,3.5,,3.61,,
CCCCCCCCCCCCCCCC(=O)OC[C@H](COP(=O)(O)OCCNC(=O)[C@H](C)NC(=O)CC[C@@H](NC(=O)[C@H](C)NC(=O)[C@@H](C)O[C@H]1[C@H](O)[C@@H](CO)OC(OCc2ccccc2)[C@@H]1NC(C)=O)C(N)=O)OC(=O)CCCCCCCCCCCCCCC (stereo partly shown) [MTP(Bn)-a-DPPE],,,,,,,mainly degraded via oxidation of the Bn-group to a benzoate group (+14) followed by hydrolysis of the benzoate (−104)
"CC(=O)N[C@H]1[C@@H](OCc2ccccc2)O[C@H](CO)[C@@H](O)[C@@H]1O[C@H](C)C(=O)N[C@@H](C)C(=O)N[C@H](CCC(=O)NCc1cn(CC(=O)O[C@H]2CC[C@@]3(C)C(=CC[C@H]4[C@@H]5CC[C@H]([C@H](C)CCCC(C)C)[C@@]5(C)CC[C@@H]43)C2)nn1)C(N)=O [Example 8, MDP(Bn)-Chol[Click]]",suspension,suspension,,Precipitate,,"able to activate NOD2, but seemingly to a lesser extent",
"CC(=O)N[C@H]1C(O)O[C@H](CO)[C@@H](O)[C@@H]1O[C@H](C)C(=O)N[C@@H](C)C(=O)N[C@H](CCC(=O)NCc1cn(CC(=O)O[C@H]2CC[C@@]3(C)C(=CC[C@H]4[C@@H]5CC[C@H]([C@H](C)CCCC(C)C)[C@@]5(C)CC[C@@H]43)C2)nn1)C(N)=O (stereo partly shown) [Example 3, MDP-Chol [Click]]",hazy,suspension,,Gelly/hazy/precipitate,,comparable,
